Biological target: T1, UGT73AH1 (Centella asiatica, UniProt A0A2I7M6C4)
T1 construct: full-length ORF with stop codon, untagged, 501 residues; expressed in E. coli BL21 (DE3), soluble total protein extract
T1 sequence (A0A2I7M6C4 1-501): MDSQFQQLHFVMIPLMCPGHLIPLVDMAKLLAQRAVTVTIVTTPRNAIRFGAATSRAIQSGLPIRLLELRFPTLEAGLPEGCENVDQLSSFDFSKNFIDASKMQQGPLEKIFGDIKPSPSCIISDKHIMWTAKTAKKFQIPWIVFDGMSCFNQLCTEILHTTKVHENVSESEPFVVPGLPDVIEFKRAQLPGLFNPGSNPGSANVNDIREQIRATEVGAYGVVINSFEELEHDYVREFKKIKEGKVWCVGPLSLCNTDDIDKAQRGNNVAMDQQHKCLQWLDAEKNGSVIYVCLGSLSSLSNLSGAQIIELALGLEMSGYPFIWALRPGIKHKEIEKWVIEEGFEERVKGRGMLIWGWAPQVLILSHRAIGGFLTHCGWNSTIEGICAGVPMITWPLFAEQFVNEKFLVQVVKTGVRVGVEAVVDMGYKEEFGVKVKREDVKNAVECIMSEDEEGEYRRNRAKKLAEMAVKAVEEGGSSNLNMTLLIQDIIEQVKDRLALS
Assay: UPLC-QTOF/MS detection of monoglucoside product
Type: biochemical
Settings: 5 mM UDP-glucose, 0.5 mM asiatic acid, 50 mM Tris-HCl pH 8.5, 35 °C, 4 h; E. coli total protein extract; boiled-protein control

`C[C@H]1[C@H](C)CC[C@]2(C(=O)O)CC[C@]3(C)C(=CC[C@@H]4[C@@]5(C)C[C@@H](O)[C@H](O)[C@@](C)(CO)[C@@H]5CC[C@]43C)[C@H]12` [asiatic acid] was tested, and the “UPLC-QTOF/MS detection of monoglucoside product” value was “our results show that UGT73AH1 catalyzes the glycosylation of asiatic acid”.

Reference: PMC5751233, “Characterization of the Asiatic Acid Glucosyltransferase, UGT73AH1, Involved in Asiaticoside Biosynthesis in Centella asiatica (L.) Urban” (International Journal of Molecular Sciences, 2017)
